According to patent publication US9068013B2, “Recombinant lectins, binding-site modified lectins and uses thereof” (SMART CELLS, INC., priority 2010, dated 2015):

Assays:
[1] = test system: fasted normal non-diabetic rats; test: Blood glucose depression profile after subcutaneous injection; type: in vivo, rat (Male Sprague-Dawley); details: non-diabetic SD rats
Procedure: (§1) Blood glucose values were measured using commercially available test strips (Precision Xtra, Abbott Laboratories, Abbott Park, Ill.).
as §1, §1
Blood glucose values were measured using commercially available test strips (Precision Xtra, Abbott Laboratories, Abbott Park, Ill.). In addition, blood from each timepoint was centrifuged at 4 C to collect the serum.

[2] = Gel formation with glycogen (OD490 turbidity); details: 10 mg/ml rCon A, 10 or 1 mg/ml glycogen, pH 7 BES buffer, 10 minutes room temperature
Procedure: rCon A synthesised and purified according to Examples 42-44 were tested for their ability to form gels with glycogen. Alpha methyl mannose present in the samples was initially removed as follows. Samples were added to BioSpin 30 columns (Bio-Rad, Hercules, Calif.) that had been previously equilibrated with deionized water. The BioSpin columns were centrifuged for 4 minutes at 1000×g, and the resulting eluent contained rCon A samples that had been substantially desalted and alpha methyl mannose removed. Samples were combined and A280 measurements were obtained. Typically, the A280 measurements correlated with the A280 measurements obtained before removal of alpha methyl mannose.
The following assay was then used to measure gel formation with glycogen. Unmodified Oyster glycogen Type II (Sigma Aldrich, St. Louis, Mo.) was dissolved at 10 mg/ml in pH 7, 200 mM BES buffer (Sigma Aldrich, St. Louis, Mo.). […] The plate was allowed to develop at room temperature for 10 minutes, after which time the turbidity of each plate well was assayed using a commercially available microplate reader (SpectraMAX, Molecular Devices, Mountain View, Calif.) at a wavelength of 490 nm (OD490). […]

[3] = subcutaneous, 0.25 ml of 20 U of equivalent insulin/ml

## insulin-dextran: comparative insulin-dextran (MW 70K) conjugate made by CNBr coupling, 10% (w/w) insulin
[1]; [3]
  time serum glucose levels remain depressed post injection: at least five
  time to reach the glucose nadir (Tnadir): about 3 hours

## SCI-1: recombinant Con A construct, amino acid sequence SEQ ID NO: 1 (wild-type Con A)
[2]
  gel formation with glycogen: formed gels with glycogen that were comparable to gels formed by native (plant-derived) Con A controls

## insulin-glycogen: comparative conjugate of insulin with oyster glycogen (Type II) by CNBr coupling, Example 32
[1]; 2.5 equivalent U of insulin/kg subcutaneous
  glucose lowering compared to the insulin-dextran conjugates: lower glucose levels much more rapidly and to a greater extent
